Measurements reported in patent publication US8288315B2, “Fungicide mixtures” (BASF SE, priority 2007, dated 2012).

Assays:
Puccinia recondita = test: Protective activity against Puccinia recondita on wheat (brown rust of wheat); format: in vivo; conditions: wheat seedlings, sprayed 1 day before inoculation, rated after a further 7 days, efficacy as % of untreated control
Experimental: (§1) The mixture was then made up with water to 100 ml.
The next day, the treated plants were inoculated with a spore suspension of brown rust of wheat (Puccinia recondita). The plants were then placed in a chamber with high atmospheric humidity (90 to 95%) at 20 to 22° C. for 24 hours. During this time, the spores germinated and the germ tubes penetrated into the leaf tissue. The following day, the test plants were returned to the greenhouse and cultivated at temperatures between 20 and 22° C. and at 65 to 70% relative atmospheric humidity for a further 7 days. The extent of the rust fungus development on the leaves was then determined visually.
(§2) The visually determined percentages of infected leaf areas were converted into efficacies as % of the untreated control:
(§3) The efficacy (E) is calculated as follows using Abbot's formula: E=(1−α/β)·100 • α corresponds to the fungicidal infection of the treated plants in % and • β corresponds to the fungicidal infection of the untreated (control) plants in %
(§4) An efficacy of 0 means that the infection level of the treated plants corresponds to that of the untreated control plants; an efficacy of 100 means that the treated plants are not infected.

Botrytis cinerea = test: Activity against gray mold on bell pepper leaves caused by Botrytis cinerea, 1 day protective application; format: in vivo; conditions: bell pepper seedlings, sprayed 1 day before inoculation, rated after 5 days, efficacy as % of untreated control
Experimental: as §1
The next day, the treated plants were inoculated with a spore suspension of Botrytis cinerea in a 2% strength biomalt solution. The test plants were then placed in a dark climatized chamber at 22 to 24° C. and high atmospheric humidity. After 5 days, the extent of the fungal infection on the leaves could be determined visually in %.
as §2, §3, §4

CCCN(CCOc1c(Cl)cc(Cl)cc1Cl)C(=O)n1ccnc1 [Prochloraz, N-propyl-N-[2-(2,4,6-trichlorophenoxy)ethyl]imidazole-1-carboxamide] was tested, and the “Observed effect (%)” value (Puccinia recondita; 4 ppm) was 0% and the “Observed effect (%)” value (Botrytis cinerea; 0.25 ppm) was 0%.
For CC1(C)CCC(Cc2ccc(Cl)cc2)C1(O)Cn1cncn1 (stereo not drawn) [Metconazole, (1RS,5RS;1RS,5SR)-5-(4-chlorobenzyl)-2,2-dimethyl-1-(1H-1,2,4-triazol-1-ylmethyl)cyclopentanol], the “Observed effect (%)” value (Puccinia recondita; 0.25 ppm) was 13% and the “Observed effect (%)” value (Botrytis cinerea; 0.016 ppm) was 0%.
